Active and inactive are the calls of the source.
How the values were obtained:
[1] = molecular target: Glyceraldehyde-3-phosphate dehydrogenase (Homo sapiens, UniProt P04406)
[2] = molecular target: Mitogen-activated protein kinase 10 (Homo sapiens, UniProt P53779); experiment: Dose response biochemical screening assay for inhibitors of c-Jun N-Terminal Kinase 3 (JNK3). [Related pubchem assays: 746 ]
Protein skinhead-1 = molecular target: T1, Protein skinhead-1 (Caenorhabditis elegans, UniProt P34707); assay type: functional
T1 sequence (P34707 whole entry): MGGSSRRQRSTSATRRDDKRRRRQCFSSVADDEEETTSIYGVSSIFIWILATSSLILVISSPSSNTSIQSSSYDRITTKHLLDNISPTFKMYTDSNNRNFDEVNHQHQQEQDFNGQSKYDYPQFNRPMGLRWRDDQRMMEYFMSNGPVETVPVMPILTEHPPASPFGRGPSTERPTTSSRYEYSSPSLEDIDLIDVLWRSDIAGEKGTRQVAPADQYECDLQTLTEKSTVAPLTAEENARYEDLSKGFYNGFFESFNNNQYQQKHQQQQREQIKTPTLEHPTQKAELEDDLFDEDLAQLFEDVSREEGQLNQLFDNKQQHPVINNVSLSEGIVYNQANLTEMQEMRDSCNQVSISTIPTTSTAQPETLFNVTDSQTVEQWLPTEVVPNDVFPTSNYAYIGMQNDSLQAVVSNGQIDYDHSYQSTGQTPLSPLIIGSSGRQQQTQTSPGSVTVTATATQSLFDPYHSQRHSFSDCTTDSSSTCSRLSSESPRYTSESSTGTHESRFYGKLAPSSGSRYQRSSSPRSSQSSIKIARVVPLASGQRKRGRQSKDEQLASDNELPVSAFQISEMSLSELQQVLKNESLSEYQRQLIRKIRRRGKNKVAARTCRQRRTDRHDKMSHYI

fMet-Leu-Phe receptor = molecular target: T2, fMet-Leu-Phe receptor (Homo sapiens, UniProt P21462); experiment: FPR ligands, dose response (AID 519); assay type: functional
T2 sequence (P21462 whole entry): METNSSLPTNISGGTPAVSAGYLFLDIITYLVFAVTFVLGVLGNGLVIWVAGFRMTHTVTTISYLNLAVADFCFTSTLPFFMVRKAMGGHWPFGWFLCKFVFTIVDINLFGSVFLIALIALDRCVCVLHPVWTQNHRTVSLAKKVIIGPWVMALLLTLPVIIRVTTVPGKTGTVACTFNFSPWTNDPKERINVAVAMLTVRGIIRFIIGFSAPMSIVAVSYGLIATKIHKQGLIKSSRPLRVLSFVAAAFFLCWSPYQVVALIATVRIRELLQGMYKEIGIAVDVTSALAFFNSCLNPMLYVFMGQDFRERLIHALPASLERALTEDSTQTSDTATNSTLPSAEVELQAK

Cytochrome P450 2C9 = Cytochrome P450 2C9 (Homo sapiens, UniProt P11712)
Chain of Cytochrome P450 2C9 (P11712 whole entry): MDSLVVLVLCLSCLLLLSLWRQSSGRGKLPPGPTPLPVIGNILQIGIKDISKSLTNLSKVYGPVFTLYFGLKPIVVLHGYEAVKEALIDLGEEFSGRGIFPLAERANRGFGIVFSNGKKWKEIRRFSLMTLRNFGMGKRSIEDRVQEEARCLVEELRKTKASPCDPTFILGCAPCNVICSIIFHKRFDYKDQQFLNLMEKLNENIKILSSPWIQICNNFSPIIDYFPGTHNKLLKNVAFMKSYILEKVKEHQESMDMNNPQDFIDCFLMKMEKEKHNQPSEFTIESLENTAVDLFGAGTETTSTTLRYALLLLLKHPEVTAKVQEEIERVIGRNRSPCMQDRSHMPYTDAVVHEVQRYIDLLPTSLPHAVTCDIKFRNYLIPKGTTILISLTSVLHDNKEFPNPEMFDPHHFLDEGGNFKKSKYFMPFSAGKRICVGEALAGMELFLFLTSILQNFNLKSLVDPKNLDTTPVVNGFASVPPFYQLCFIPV

[3] = molecular target: Peroxisome proliferator-activated receptor gamma/Nuclear receptor coactivator 3 (Homo sapiens, UniProt P37231); assay type: functional;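 note: agonist potency for raising coactivator recruitment to the receptor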
[4] = molecular target: Peroxisome proliferator-activated receptor gamma/Nuclear receptor coactivator 1 (Homo sapiens, UniProt P37231); assay type: functional;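 note: agonist potency as compounds enhance coactivator SRC-1 recruitment to PPARgamma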
[5] = molecular target: Peroxisome proliferator-activated receptor gamma/Nuclear receptor coactivator 2 (Homo sapiens, UniProt P37231); assay type: functional;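 note: agonist potency for raising coactivator recruitment to the receptor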
Chain of Peroxisome proliferator-activated receptor gamma/Nuclear receptor coactivator 2 (P37231 whole entry): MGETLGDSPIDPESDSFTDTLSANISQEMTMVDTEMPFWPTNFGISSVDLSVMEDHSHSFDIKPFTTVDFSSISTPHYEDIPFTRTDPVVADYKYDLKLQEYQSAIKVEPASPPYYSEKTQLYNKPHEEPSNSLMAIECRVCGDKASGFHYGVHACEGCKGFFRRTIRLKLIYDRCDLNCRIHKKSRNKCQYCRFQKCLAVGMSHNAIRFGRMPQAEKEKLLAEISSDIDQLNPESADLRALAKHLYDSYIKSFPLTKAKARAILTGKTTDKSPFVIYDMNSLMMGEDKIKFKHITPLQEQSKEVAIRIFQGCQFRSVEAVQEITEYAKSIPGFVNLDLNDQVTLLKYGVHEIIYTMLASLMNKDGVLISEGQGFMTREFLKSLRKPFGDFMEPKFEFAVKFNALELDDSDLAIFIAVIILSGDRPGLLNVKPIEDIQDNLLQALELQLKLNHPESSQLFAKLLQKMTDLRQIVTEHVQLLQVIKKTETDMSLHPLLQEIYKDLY
Chain of Peroxisome proliferator-activated receptor gamma/Nuclear receptor coactivator 2 (Q15596 whole entry, further chain): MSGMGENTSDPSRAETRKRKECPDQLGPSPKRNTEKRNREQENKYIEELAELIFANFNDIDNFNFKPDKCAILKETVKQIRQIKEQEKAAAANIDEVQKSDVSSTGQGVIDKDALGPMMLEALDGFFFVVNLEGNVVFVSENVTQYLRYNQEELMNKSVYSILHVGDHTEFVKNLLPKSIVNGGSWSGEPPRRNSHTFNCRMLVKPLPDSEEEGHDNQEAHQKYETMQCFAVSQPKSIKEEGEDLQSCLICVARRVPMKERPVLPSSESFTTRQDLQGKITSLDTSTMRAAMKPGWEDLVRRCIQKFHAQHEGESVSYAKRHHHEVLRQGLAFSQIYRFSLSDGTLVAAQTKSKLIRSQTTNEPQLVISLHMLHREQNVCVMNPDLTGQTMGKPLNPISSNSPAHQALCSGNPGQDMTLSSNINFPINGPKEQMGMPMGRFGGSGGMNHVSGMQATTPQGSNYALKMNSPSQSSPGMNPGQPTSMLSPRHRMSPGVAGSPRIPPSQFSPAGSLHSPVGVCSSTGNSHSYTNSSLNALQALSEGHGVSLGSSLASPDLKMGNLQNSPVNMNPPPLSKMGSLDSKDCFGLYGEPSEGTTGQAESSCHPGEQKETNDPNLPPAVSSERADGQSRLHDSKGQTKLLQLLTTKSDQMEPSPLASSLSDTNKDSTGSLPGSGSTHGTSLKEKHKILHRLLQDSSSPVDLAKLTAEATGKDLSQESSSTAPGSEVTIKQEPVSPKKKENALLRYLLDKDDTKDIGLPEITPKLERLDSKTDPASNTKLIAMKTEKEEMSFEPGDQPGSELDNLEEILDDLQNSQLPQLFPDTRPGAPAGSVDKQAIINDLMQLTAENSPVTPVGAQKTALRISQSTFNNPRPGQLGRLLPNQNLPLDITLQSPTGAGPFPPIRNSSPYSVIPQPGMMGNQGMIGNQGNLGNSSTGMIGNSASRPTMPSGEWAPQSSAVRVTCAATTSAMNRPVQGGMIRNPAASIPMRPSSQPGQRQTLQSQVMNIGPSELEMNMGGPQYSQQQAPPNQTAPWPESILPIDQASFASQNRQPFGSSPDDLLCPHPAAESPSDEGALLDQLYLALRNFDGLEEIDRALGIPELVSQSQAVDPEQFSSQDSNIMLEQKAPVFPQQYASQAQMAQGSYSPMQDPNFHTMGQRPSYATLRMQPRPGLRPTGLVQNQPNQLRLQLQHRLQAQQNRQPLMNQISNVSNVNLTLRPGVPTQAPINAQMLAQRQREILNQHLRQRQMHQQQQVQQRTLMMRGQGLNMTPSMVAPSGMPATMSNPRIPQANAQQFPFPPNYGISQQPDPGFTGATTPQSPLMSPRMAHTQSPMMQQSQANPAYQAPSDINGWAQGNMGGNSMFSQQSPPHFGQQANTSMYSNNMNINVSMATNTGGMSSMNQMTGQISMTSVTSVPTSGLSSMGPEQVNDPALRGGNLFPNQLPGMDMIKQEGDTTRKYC

Prothrombin = Prothrombin (Homo sapiens, UniProt P00734); experiment: Thrombin 1536 HTS Dose Response Confirmation. [Related pubchem assays: 1046 (Thrombin 1536 HTS; hits were confirmed in this assay)]; assay type: functional
Cytochrome P450 1A2 = molecular target: T3, Cytochrome P450 1A2 (Homo sapiens, UniProt P05177);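 note: PubChem cytochrome P450 panel assay, CYP1A2 panel member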
T3 sequence (P05177 whole entry): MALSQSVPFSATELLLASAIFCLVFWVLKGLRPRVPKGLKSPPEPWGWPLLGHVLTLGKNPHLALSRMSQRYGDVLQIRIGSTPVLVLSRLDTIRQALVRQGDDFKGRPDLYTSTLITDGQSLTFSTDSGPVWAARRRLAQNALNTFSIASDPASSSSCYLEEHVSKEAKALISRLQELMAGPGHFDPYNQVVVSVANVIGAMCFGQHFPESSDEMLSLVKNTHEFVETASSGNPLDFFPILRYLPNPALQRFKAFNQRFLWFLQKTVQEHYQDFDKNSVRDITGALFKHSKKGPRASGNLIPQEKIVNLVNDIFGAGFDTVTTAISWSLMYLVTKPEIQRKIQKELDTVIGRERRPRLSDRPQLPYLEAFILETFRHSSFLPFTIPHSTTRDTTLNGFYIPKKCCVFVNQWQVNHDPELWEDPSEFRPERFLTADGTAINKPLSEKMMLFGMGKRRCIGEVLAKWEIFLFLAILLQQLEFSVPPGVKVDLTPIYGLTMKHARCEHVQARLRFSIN

Cytochrome P450 2C19 = Cytochrome P450 2C19 (Homo sapiens, UniProt P33261); experiment: Cytochrome panel assay with activity outcomes. Panel member name: p450-cyp2c19 Compounds with AC50 equal or less than 10 uM are considered active; assay type: functional; details: read-out: AC50
Chain of Cytochrome P450 2C19 (P33261 whole entry): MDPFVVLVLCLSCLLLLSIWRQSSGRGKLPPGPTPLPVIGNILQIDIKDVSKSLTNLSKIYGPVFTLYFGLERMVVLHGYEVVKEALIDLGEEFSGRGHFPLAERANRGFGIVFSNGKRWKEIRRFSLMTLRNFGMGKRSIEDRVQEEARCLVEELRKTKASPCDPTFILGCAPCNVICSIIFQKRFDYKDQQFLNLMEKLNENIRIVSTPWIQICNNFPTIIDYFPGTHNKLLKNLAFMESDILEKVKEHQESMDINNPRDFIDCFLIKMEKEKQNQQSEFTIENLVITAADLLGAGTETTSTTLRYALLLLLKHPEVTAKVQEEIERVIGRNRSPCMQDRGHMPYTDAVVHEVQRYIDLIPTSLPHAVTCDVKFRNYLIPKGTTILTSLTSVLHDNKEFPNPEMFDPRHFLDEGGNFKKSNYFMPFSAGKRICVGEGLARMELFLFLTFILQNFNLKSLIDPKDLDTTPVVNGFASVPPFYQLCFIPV

Genome polyprotein = Genome polyprotein (dengue virus type 2, UniProt P29990); experiment: Dengue-2 NS5 methyltransferase inhibitors, primary screen, biochemical, confirmation dose response (AID 588689); assay type: functional
Chain of Genome polyprotein (P29990 2492-3391 limits assumed): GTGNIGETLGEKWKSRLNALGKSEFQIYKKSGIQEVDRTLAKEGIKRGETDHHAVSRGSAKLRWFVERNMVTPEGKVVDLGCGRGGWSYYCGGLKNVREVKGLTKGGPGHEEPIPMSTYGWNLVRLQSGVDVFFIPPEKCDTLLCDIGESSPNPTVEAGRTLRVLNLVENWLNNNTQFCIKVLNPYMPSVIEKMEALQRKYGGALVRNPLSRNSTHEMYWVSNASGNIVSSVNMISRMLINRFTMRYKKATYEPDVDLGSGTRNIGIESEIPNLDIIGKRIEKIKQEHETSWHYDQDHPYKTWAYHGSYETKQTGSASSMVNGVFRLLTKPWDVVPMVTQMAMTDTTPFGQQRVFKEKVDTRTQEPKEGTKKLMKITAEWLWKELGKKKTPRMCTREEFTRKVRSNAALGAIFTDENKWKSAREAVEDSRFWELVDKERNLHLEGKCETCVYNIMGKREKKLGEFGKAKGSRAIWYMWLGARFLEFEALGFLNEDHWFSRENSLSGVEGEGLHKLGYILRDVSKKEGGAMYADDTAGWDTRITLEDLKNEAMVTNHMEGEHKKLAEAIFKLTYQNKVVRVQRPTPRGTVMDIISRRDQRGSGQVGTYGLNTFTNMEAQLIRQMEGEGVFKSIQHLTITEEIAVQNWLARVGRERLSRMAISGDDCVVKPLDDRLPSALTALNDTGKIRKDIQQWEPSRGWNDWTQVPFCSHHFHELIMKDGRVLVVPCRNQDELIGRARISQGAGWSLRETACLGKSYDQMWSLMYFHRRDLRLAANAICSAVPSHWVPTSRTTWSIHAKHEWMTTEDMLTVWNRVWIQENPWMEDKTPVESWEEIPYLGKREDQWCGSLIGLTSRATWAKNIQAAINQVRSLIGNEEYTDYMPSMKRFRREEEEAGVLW

[6] = Shn3 3'UTR reporter inhibitors, dose response, cell-based, Clone20 osteoblasts, firefly luciferase, cherry-picked (AID 624132); assay type: functional;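 note: firefly luciferase luminescence from reporter carrying the Shn3 3'UTR in osteoblasts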
Nonstructural protein 1 = Nonstructural protein 1 (Influenza A virus, UniProt Q194T2); assay type: functional, Influenza A virus (A/California/07/2009(H1N1))
Chain of Nonstructural protein 1 (Q194T2 whole entry): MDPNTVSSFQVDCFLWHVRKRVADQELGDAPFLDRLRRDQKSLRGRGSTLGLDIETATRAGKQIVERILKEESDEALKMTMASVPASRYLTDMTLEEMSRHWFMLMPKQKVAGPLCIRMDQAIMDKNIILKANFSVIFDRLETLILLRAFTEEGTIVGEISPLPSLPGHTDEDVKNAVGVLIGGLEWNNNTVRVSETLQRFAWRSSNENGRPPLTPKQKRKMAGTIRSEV

[7] = HepG2 cell cytotoxicity, dose response, cytotoxicity control for Shn3 inhibitor project, CellTiter-Glo, cherry-picked (AID 624134); assay type: functional, cell-based
[8] = control 3'UTR Renilla luciferase suppression, dose response, counter-screen for Shn3 inhibitor project, cell-based, Clone20-Shn3RL, cherry-picked (AID 624133); assay type: functional

Chain of Mitogen-activated protein kinase 10 (P53779 whole entry): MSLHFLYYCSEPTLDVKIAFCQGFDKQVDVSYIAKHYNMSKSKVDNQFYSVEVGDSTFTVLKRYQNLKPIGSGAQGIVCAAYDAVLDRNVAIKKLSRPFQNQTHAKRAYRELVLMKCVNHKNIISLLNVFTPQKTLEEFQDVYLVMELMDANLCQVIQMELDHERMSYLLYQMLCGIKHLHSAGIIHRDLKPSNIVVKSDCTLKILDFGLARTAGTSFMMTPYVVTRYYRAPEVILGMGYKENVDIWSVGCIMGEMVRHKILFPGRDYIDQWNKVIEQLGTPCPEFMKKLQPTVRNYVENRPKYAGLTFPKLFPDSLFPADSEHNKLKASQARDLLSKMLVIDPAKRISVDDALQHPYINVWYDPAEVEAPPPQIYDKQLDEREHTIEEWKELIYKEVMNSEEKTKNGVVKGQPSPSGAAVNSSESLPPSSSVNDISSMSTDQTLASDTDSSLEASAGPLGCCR
Chain of Glyceraldehyde-3-phosphate dehydrogenase (P04406 whole entry): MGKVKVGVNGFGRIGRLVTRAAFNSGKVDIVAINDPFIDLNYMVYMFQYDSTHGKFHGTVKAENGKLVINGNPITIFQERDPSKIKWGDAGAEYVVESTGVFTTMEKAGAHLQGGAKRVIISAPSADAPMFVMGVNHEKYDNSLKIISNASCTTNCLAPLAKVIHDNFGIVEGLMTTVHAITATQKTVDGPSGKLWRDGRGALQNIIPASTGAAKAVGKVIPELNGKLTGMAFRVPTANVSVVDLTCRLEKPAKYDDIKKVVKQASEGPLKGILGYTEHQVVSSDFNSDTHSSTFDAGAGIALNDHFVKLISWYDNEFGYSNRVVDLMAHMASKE

With `Cc1ccc(N2C(=O)C(Cl)=C(N(C)C)C2=O)cc1` the IC50 [1] was > 50 µM (inconclusive).
With `COc1cc(CN/C(C)=C(\C#N)C(N)=O)cc(OC)c1OC` the IC50 [2] was 7.16 µM (active).
For `COC(=O)c1[nH]c(C)c(C(=O)C2=C(O)C(=O)N(CCCN3CCOCC3)C2c2ccccn2)c1C` (stereo not drawn), the IC50 (Protein skinhead-1) was > 100 µM (inactive) and the Ki (fMet-Leu-Phe receptor) was 9.7 µM (active).
In the case of `COc1ccc(C(C)=O)cc1COC(=O)c1c(C)noc1C`, the IC50 [2] is reported as 39.8 µM (not active).
With `O=C(NC1CCCC1)c1cccnc1N1CCCCCC1` the AC50 (Cytochrome P450 2C9) was 35.5 µM (inconclusive) and the IC50 [2] was > 93.1 µM (not active).
With `CCOC(=O)n1cc(-c2cnc(CNC(=O)C(C)(c3ccccc3)c3ccccc3)o2)c2ccccc21` the EC50 [3] was > 79.4 µM (not active), the EC50 [4] was > 79.4 µM (not active) and the EC50 [5] was > 79.4 µM (not active).
In the case of `COc1ccccc1CNC(=O)c1cn(C)c2ccc(S(=O)(=O)N3CCCC3)cc2c1=O`, the IC50 (Prothrombin) is reported as 5.95 µM (active).
For `COc1ccccc1C1C(C(=O)c2ccccc2)=C(O)C(=O)N1CCO` (stereo not drawn), the AC50 (Cytochrome P450 2C9) was 39.8 µM (inconclusive), the AC50 (Cytochrome P450 1A2) was 794 nM (inconclusive) and the Ki (fMet-Leu-Phe receptor) was 19.7 µM (inactive). The AC50 (Cytochrome P450 2C19) was 39.8 µM (inconclusive).
With `O=C(O)c1ccc(NS(=O)(=O)c2ccc3c(c2)C(=O)c2cc(S(=O)(=O)Nc4ccc(C(=O)O)cc4)ccc2-3)cc1` the IC50 (Genome polyprotein) was 95.9 µM (active).
In the case of `C=CCn1c(-c2ccc(S(=O)(=O)N3CCOCC3)cc2)cs/c1=N\c1ccccc1`, the AC50 [6] is reported as 1.52 µM (active), the IC50 (Nonstructural protein 1) is reported as > 100 µM (active) and the AC50 [7] is reported as 40 µM (active). For the same molecule, the AC50 [8] was 5.6 µM (active).
In the case of `Oc1[nH]c2ccccc2c1/C=N/c1ccc2c(c1)OCCO2`, the IC50 [2] is reported as 89.9 µM (not active).
In the case of `N#C/C(=C\c1cccc(Cl)c1)C(=O)c1ccccc1`, the IC50 (Genome polyprotein) is reported as 64.1 µM (active).
In the case of `COc1ccc(/C=N\NS(=O)(=O)c2ccc(Cl)cc2)cc1COc1ccccc1[N+](=O)[O-]`, the IC50 (Prothrombin) is reported as > 50 µM (not active).
